Test results: ChEMBL document CHEMBL1255421, “In vitro fungicidal activities of echinocandins against Candida metapsilosis, C. orthopsilosis, and C. parapsilosis evaluated by time-kill studies” (2010)
In brackets after ≈: the same amount, converted by molar mass. Activity calls are given as the source filed them. The calls are words filed in the database; no cut-off is given here. Numbered stars: 1 amine (or outer) side, 2 acyl side, 3 side chain; on linkers, the order of the positions; unused ones are H or OH. Bridge positions count the residues as written; N and C are the ends. Square brackets hold non-standard residues; d marks the D form. Peptide text beside a SMILES is read from it. * marks the point of attachment. pTerphenylCO(4''-OnC5H11) = CCCCCOc1ccc(-c2ccc(-c3ccc(C(=O)*)cc3)cc2)cc1; Orn(4R-OH,5R-OH) = O=C([C@H](C[C@@H](O)[C@@H](O)N[*:3])N[*:1])[*:2]; hTyr(3S-OH,4S-OH) = N[C@H](C(=O)O)[C@H](O)[C@@H](O)c1ccc(O)cc1; Pro(3S-OH,4S-Me) = C[C@H]1CN[C@H](C(=O)O)[C@H]1O; Hyp = O=C(O)[C@@H]1C[C@@H](O)CN1

Tests used:
Candida orthopsilosis [1] = experiment: Antifungal activity against Candida orthopsilosis clinical isolate bloodstream form assessed as time required for 99.9% reduction in fungal growth at 4 mg/L by time-kill assay; format: functional
Candida metapsilosis [2] = experiment: Antifungal activity against Candida metapsilosis clinical isolate bloodstream form assessed as time required for 50% reduction in fungal growth at 0.25 mg/L by time-kill assay; format: functional
Candida metapsilosis [3] = experiment: Antifungal activity against Candida metapsilosis clinical isolate bloodstream form assessed as time required for 50% reduction in fungal growth at 1 mg/L by time-kill assay; format: functional
Candida metapsilosis [4] = experiment: Antifungal activity against Candida metapsilosis clinical isolate bloodstream form assessed as time required for 50% reduction in fungal growth at 4 mg/L by time-kill assay; format: functional
Candida metapsilosis [5] = experiment: Antifungal activity against Candida metapsilosis clinical isolate bloodstream form assessed as time required for 50% reduction in fungal growth at 16 mg/L by time-kill assay; format: functional
Candida metapsilosis [6] = experiment: Antifungal activity against Candida metapsilosis clinical isolate bloodstream form assessed as time required for 90% reduction in fungal growth at 0.25 mg/L by time-kill assay; format: functional
Candida metapsilosis [7] = experiment: Antifungal activity against Candida metapsilosis clinical isolate bloodstream form assessed as time required for 90% reduction in fungal growth at 4 mg/L by time-kill assay; format: functional
Candida metapsilosis [8] = experiment: Antifungal activity against Candida metapsilosis clinical isolate bloodstream form assessed as time required for 90% reduction in fungal growth at 16 mg/L by time-kill assay; format: functional
Candida metapsilosis [9] = experiment: Antifungal activity against Candida metapsilosis clinical isolate bloodstream form assessed as time required for 99% reduction in fungal growth at 0.25 mg/L by time-kill assay; format: functional
Candida metapsilosis [10] = experiment: Antifungal activity against Candida metapsilosis clinical isolate bloodstream form assessed as time required for 99% reduction in fungal growth at 4 mg/L by time-kill assay; format: functional
Candida metapsilosis [11] = experiment: Antifungal activity against Candida metapsilosis clinical isolate bloodstream form assessed as time required for 99% reduction in fungal growth at 16 mg/L by time-kill assay; format: functional
Candida metapsilosis [12] = experiment: Antifungal activity against Candida metapsilosis clinical isolate bloodstream form assessed as time required for 99.9% reduction in fungal growth at 0.25 mg/L by time-kill assay; format: functional
Candida parapsilosis [13] = experiment: Antifungal activity against Candida parapsilosis clinical isolate bloodstream form assessed as time required for 50% reduction in fungal growth at 0.25 mg/L by time-kill assay; format: functional
Candida parapsilosis [14] = experiment: Antifungal activity against Candida parapsilosis clinical isolate bloodstream form assessed as time required for 50% reduction in fungal growth at 1 mg/L by time-kill assay; format: functional
Candida parapsilosis [15] = experiment: Antifungal activity against Candida parapsilosis clinical isolate bloodstream form assessed as time required for 50% reduction in fungal growth at 32 mg/L by time-kill assay; format: functional
Candida parapsilosis [16] = experiment: Antifungal activity against Candida parapsilosis clinical isolate bloodstream form assessed as time required for 90% reduction in fungal growth at 4 mg/L by time-kill assay; format: functional
Candida parapsilosis [17] = experiment: Antifungal activity against Candida parapsilosis clinical isolate bloodstream form assessed as time required for 90% reduction in fungal growth at 32 mg/L by time-kill assay; format: functional
Candida parapsilosis [18] = experiment: Antifungal activity against Candida parapsilosis clinical isolate bloodstream form assessed as time required for 99.9% reduction in fungal growth at 0.25 mg/L by time-kill assay; format: functional
Candida parapsilosis [19] = experiment: Antifungal activity against Candida parapsilosis clinical isolate bloodstream form assessed as time required for 99.9% reduction in fungal growth at 1 mg/L by time-kill assay; format: functional
Candida metapsilosis [20] = experiment: Antifungal activity against Candida metapsilosis clinical isolate bloodstream form assessed as time required for 99.9% reduction in fungal growth at 1 mg/L by time-kill assay; format: functional
Candida orthopsilosis [21] = experiment: Fungicidal activity against Candida orthopsilosis isolate CP-151 bloodstream form by CLSI method; format: functional; settings: Lodderomyces orthopsilosis
Candida metapsilosis [22] = experiment: Fungicidal activity against Candida metapsilosis isolate CP-132 bloodstream form by CLSI method; format: functional; settings: Lodderomyces metapsilosis
Candida metapsilosis [23] = experiment: Fungicidal activity against Candida metapsilosis isolate ATC193 bloodstream form by CLSI method; format: functional; settings: Lodderomyces metapsilosis, isolate ATC-193
Candida parapsilosis [24] = experiment: Fungicidal activity against Candida parapsilosis isolate CP-300 bloodstream form by CLSI method; format: functional; settings: Lodderomyces parapsilosis
Candida parapsilosis [25] = experiment: Fungicidal activity against Candida parapsilosis isolate CP-302 bloodstream form by CLSI method; format: functional; settings: Lodderomyces parapsilosis
Candida parapsilosis [26] = experiment: Antifungal activity against Candida parapsilosis clinical isolate bloodstream form assessed as fungal count at 4 mg/L measured at 6 hrs by time-kill assay; format: functional
Candida metapsilosis [27] = experiment: Antifungal activity against Candida metapsilosis clinical isolate bloodstream form assessed as induction of miniparadoxical effect at 32 mg/L after 48 hrs by time-kill assay; format: functional, organism-based
Candida parapsilosis [28] = experiment: Antifungal activity against Candida parapsilosis clinical isolate bloodstream form assessed as inhibition of fungal regrowth at 0.03 to 32 mg/L after 6 hrs by time-kill assay; format: functional, organism-based
Candida orthopsilosis [29] = experiment: Antifungal activity against Candida orthopsilosis clinical isolate bloodstream form assessed as induction of fungal killing rate at 0.03 to 32 mg/L measured at 6 hrs by time-kill assay; format: functional, organism-based
Candida metapsilosis [30] = experiment: Antifungal activity against Candida metapsilosis clinical isolate bloodstream form assessed as mild induction of fungal death at 0.03 to 32 mg/L after 6 hrs by time-kill assay; format: functional, organism-based
Candida orthopsilosis [31] = experiment: Antifungal activity against Candida orthopsilosis clinical isolate bloodstream form assessed as induction of maximal fungal death at 1 mg/L after 48 hrs by time-kill assay; format: functional, organism-based
Candida parapsilosis [32] = experiment: Antifungal activity against Candida parapsilosis clinical isolate bloodstream form assessed as induction of maximal fungal death at 8 mg/L after 48 hrs by time-kill assay; format: functional, organism-based
Candida orthopsilosis [33] = experiment: Antifungal activity against Candida orthopsilosis clinical isolate bloodstream form assessed as time required for 50% reduction in fungal growth at 1 mg/L by time-kill assay; format: functional
Candida orthopsilosis [34] = experiment: Antifungal activity against Candida orthopsilosis clinical isolate bloodstream form assessed as time required for 50% reduction in fungal growth at 32 mg/L by time-kill assay; format: functional
Candida orthopsilosis [35] = experiment: Antifungal activity against Candida orthopsilosis clinical isolate bloodstream form assessed as time required for 90% reduction in fungal growth at 4 mg/L by time-kill assay; format: functional
Candida orthopsilosis [36] = experiment: Antifungal activity against Candida orthopsilosis clinical isolate bloodstream form assessed as time required for 90% reduction in fungal growth at 16 mg/L by time-kill assay; format: functional
Candida orthopsilosis [37] = experiment: Antifungal activity against Candida orthopsilosis clinical isolate bloodstream form assessed as time required for 99% reduction in fungal growth at 0.25 mg/L by time-kill assay; format: functional
Candida orthopsilosis [38] = experiment: Antifungal activity against Candida orthopsilosis clinical isolate bloodstream form assessed as time required for 99% reduction in fungal growth at 1 mg/L by time-kill assay; format: functional

CCCCCOc1ccc(-c2ccc(-c3ccc(C(=O)N[C@H]4C[C@@H](O)[C@@H](O)NC(=O)[C@@H]5[C@@H](O)[C@@H](C)CN5C(=O)[C@H]([C@@H](C)O)NC(=O)[C@H]([C@H](O)[C@@H](O)c5ccc(O)cc5)NC(=O)[C@@H]5C[C@@H](O)CN5C(=O)[C@H]([C@@H](C)O)NC4=O)cc3)cc2)cc1 [ANIDULAFUNGIN] ({pTerphenylCO(4''-OnC5H11)}-[Orn(4R-OH,5R-OH)]T[Hyp][hTyr(3S-OH,4S-OH)]T[Pro(3S-OH,4S-Me)]; lactam 1-C)
Time (Candida orthopsilosis [1]): 27.25 h | Time (Candida metapsilosis [2]): 7.74 h | Time (Candida metapsilosis [3]): 1.57 h | Time (Candida metapsilosis [4]): 2.39 h | Time (Candida metapsilosis [5]): 1.51 h | Time (Candida metapsilosis [6]): 25.71 h | Time (Candida metapsilosis [7]): 7.94 h | Time (Candida metapsilosis [8]): 5.01 h | Time (Candida metapsilosis [9]): 51.41 h | Time (Candida metapsilosis [10]): 15.89 h | Time (Candida metapsilosis [11]): 10.02 h | Time (Candida metapsilosis [12]): 77.12 h | Time (Candida parapsilosis [13]): inactive | Time (Candida parapsilosis [14]): inactive | Time (Candida parapsilosis [15]): 4.2 h | Time (Candida parapsilosis [16]): >48 h | Time (Candida parapsilosis [17]): 13.95 h | Time (Candida parapsilosis [18]): inactive | Time (Candida parapsilosis [19]): inactive | Time (Candida metapsilosis [20]): 15.67 h | MIC (Candida orthopsilosis [21]): 0.5 µg/mL (≈ 0.438 µM) | MIC (Candida metapsilosis [22]): 0.06 µg/mL (≈ 0.0526 µM) | MIC (Candida metapsilosis [23]): 0.03 µg/mL (≈ 0.0263 µM) | MIC (Candida parapsilosis [24]): 0.5 µg/mL (≈ 0.438 µM) | MIC (Candida parapsilosis [25]): 1 µg/mL (≈ 0.877 µM) | log10cfu (Candida parapsilosis [26]): 1.48 /ml | Activity (Candida metapsilosis [27]): inactive | inhibition (Candida parapsilosis [28]): inactive | Activity (Candida orthopsilosis [29]): inactive | Activity (Candida metapsilosis [30]): Active | Activity (Candida orthopsilosis [31]): Active | Activity (Candida parapsilosis [32]): Active | Time (Candida orthopsilosis [33]): 6.36 h | Time (Candida orthopsilosis [34]): 1.48 h | Time (Candida orthopsilosis [35]): 9.08 h | Time (Candida orthopsilosis [36]): 6.24 h | Time (Candida orthopsilosis [37]): >48 h | Time (Candida orthopsilosis [38]): 42.28 h
